In PubChem BioAssay (NCI):
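Grown in 96-well plates, cells were treated for 48 hours with each compound at five concentrations. Insufficient inhibition: endpoint recorded as highest concentration tested. Abbreviation: GI50, concentration required for 50% inhibition of growth. TGI denotes the concentration required for complete inhibition of growth.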

Columns and labels:
Assay in all cases: NCI-60 cell line screen, 48 h
NCI-H23 lung = test system: NCI-H23 lung
SF-268 CNS = test system: SF-268 CNS
MDA-MB-435 = test system: MDA-MB-435
A498 renal = test system: A498 renal
K-562 leukemia = test system: K-562 leukemia
IGROV1 ovarian = test system: IGROV1 ovarian
BT-549 breast = test system: BT-549 breast
ACHN renal = test system: ACHN renal
SN12C renal = test system: SN12C renal
NCI-H226 lung = test system: NCI-H226 lung

SMILES: COC1=C(OC)C(=O)C(Cc2c(Cl)nc3sc(C)cn23)=C(C)C1=O
- TGI (NCI-H23 lung): 42.6 µM
- TGI (SF-268 CNS): 37 µM
- TGI (MDA-MB-435): 35.3 µM
- TGI (A498 renal): 65.5 µM
- TGI (K-562 leukemia): 45.5 µM
- TGI (IGROV1 ovarian): 35.5 µM
- TGI (BT-549 breast): 34.2 µM
- TGI (ACHN renal): 40 µM
- TGI (SN12C renal): 30.5 µM

SMILES: Nc1ncnc2nc[nH]c12
- TGI (NCI-H23 lung): > 250 µM
- TGI (NCI-H226 lung): > 250 µM
- GI50 (SF-268 CNS): 143 µM
- TGI (SF-268 CNS): > 250 µM
- TGI (A498 renal): 11.1 µM
- TGI (K-562 leukemia): > 250 µM
- TGI (IGROV1 ovarian): > 250 µM
- TGI (SN12C renal): > 237 µM

SMILES: O=C(Nc1ccc(Cl)cc1)c1cc2cc(N=Nc3ccccc3Cl)ccc2oc1=O
- TGI (NCI-H23 lung): 34.5 µM
- TGI (NCI-H226 lung): 46.9 µM
- TGI (SF-268 CNS): > 100 µM
- TGI (K-562 leukemia): 23.6 µM
- TGI (IGROV1 ovarian): 48.1 µM
- TGI (ACHN renal): > 100 µM
- TGI (SN12C renal): 44.7 µM

SMILES: O=C([O-])C[n+]1ccccc1
- TGI (NCI-H23 lung): > 100 µM
- TGI (NCI-H226 lung): > 100 µM
- TGI (SF-268 CNS): > 100 µM
- TGI (MDA-MB-435): > 100 µM
- TGI (A498 renal): > 100 µM
- TGI (K-562 leukemia): > 100 µM
- TGI (IGROV1 ovarian): > 100 µM
- TGI (BT-549 breast): > 100 µM
- TGI (ACHN renal): > 100 µM
- TGI (SN12C renal): > 100 µM

SMILES: CCOc1ccc(NC(=O)C(=O)CC(=O)c2sc(NNC(C)=O)nc2C)cc1
- TGI (NCI-H23 lung): > 100 µM
- TGI (NCI-H226 lung): > 100 µM
- TGI (SF-268 CNS): > 100 µM
- TGI (A498 renal): > 100 µM
- TGI (K-562 leukemia): > 100 µM
- TGI (IGROV1 ovarian): > 100 µM
- TGI (ACHN renal): > 100 µM
- TGI (SN12C renal): > 100 µM

SMILES: CC(CCN)(CCN)[N+](=O)[O-]
- TGI (NCI-H23 lung): > 100 µM
- TGI (NCI-H226 lung): > 100 µM
- TGI (SF-268 CNS): > 100 µM
- TGI (MDA-MB-435): > 100 µM
- TGI (A498 renal): > 100 µM
- TGI (K-562 leukemia): > 100 µM
- TGI (IGROV1 ovarian): > 100 µM
- TGI (BT-549 breast): > 100 µM
- TGI (ACHN renal): > 100 µM
- TGI (SN12C renal): > 100 µM

SMILES: C[C@]12C=CC(=O)C=C1CC[C@@H]1[C@@H]2CC[C@]2(C)OC(=O)CC[C@@H]12
- TGI (NCI-H23 lung): 499 µM
- TGI (NCI-H226 lung): > 493 µM
- TGI (SF-268 CNS): > 500 µM
- TGI (MDA-MB-435): > 500 µM
- TGI (A498 renal): 496 µM
- TGI (K-562 leukemia): > 500 µM
- TGI (IGROV1 ovarian): > 475 µM
- TGI (BT-549 breast): > 500 µM
- TGI (ACHN renal): > 500 µM
- TGI (SN12C renal): > 500 µM

SMILES: CCOC(=O)c1cnc2oc3ccc(O)cc3c2c1C
- TGI (NCI-H23 lung): > 100 µM
- TGI (NCI-H226 lung): > 100 µM
- GI50 (SF-268 CNS): 69.9 µM
- TGI (SF-268 CNS): > 100 µM
- TGI (MDA-MB-435): > 100 µM
- TGI (A498 renal): > 100 µM
- TGI (K-562 leukemia): > 100 µM
- GI50 (IGROV1 ovarian): 86.2 µM
- TGI (IGROV1 ovarian): > 100 µM
- TGI (ACHN renal): > 100 µM
- TGI (SN12C renal): > 100 µM

SMILES: CCOC(=O)C1=C(C)OC2(O)C=CC(O)=C3C(=O)N(c4ccccc4)C(=O)C312 (stereo not given)
- TGI (NCI-H23 lung): > 100 µM
- TGI (NCI-H226 lung): 80.3 µM
- TGI (SF-268 CNS): > 100 µM
- TGI (MDA-MB-435): > 100 µM
- TGI (K-562 leukemia): > 100 µM
- TGI (IGROV1 ovarian): 68.2 µM
- TGI (BT-549 breast): 70.5 µM
- TGI (ACHN renal): > 100 µM
- TGI (SN12C renal): > 100 µM

SMILES: COCCOC(=O)c1c(C)n([O-])c2cc(Cl)c(Cl)cc2[n+]1=O
- TGI (NCI-H23 lung): 79.2 µM
- TGI (SF-268 CNS): 59.1 µM
- TGI (MDA-MB-435): 66.2 µM
- TGI (A498 renal): 61.9 µM
- TGI (K-562 leukemia): 34.7 µM
- TGI (IGROV1 ovarian): 23.5 µM
- TGI (BT-549 breast): 67.1 µM
- TGI (ACHN renal): 29.3 µM
- TGI (SN12C renal): 70 µM

SMILES: O=C(O)c1cc([N+](=O)[O-])cc2c(=O)c3cnccc3[nH]c12
- TGI (NCI-H23 lung): > 100 µM
- TGI (NCI-H226 lung): > 100 µM
- TGI (MDA-MB-435): > 100 µM
- TGI (A498 renal): > 100 µM
- TGI (K-562 leukemia): > 100 µM
- TGI (IGROV1 ovarian): > 100 µM
- TGI (BT-549 breast): > 100 µM
- TGI (SN12C renal): > 100 µM

SMILES: CC(C)=CCC/C(C)=C/CC/C(C)=C/CC/C(C)=C/C=C/C=C(\C)CC/C=C(\C)CC/C=C(\C)CCC=C(C)C
- TGI (NCI-H23 lung): > 100 µM
- TGI (NCI-H226 lung): > 100 µM
- TGI (SF-268 CNS): > 81.4 µM
- TGI (MDA-MB-435): > 100 µM
- TGI (A498 renal): > 100 µM
- TGI (K-562 leukemia): > 31.6 µM
- TGI (IGROV1 ovarian): 36.4 µM
- TGI (BT-549 breast): > 100 µM
- TGI (ACHN renal): 53 µM
- TGI (SN12C renal): > 55.3 µM

SMILES: NN(CC(=O)O)CC(=O)O
- TGI (NCI-H23 lung): > 100 µM
- TGI (NCI-H226 lung): > 100 µM
- TGI (SF-268 CNS): > 100 µM
- TGI (MDA-MB-435): > 100 µM
- TGI (A498 renal): > 100 µM
- TGI (K-562 leukemia): > 100 µM
- TGI (IGROV1 ovarian): > 100 µM
- TGI (BT-549 breast): > 100 µM
- TGI (ACHN renal): > 100 µM
- TGI (SN12C renal): > 100 µM

SMILES: CCCCCCCCCCCCCCCCCCOc1ccccc1CC(=O)OCC[N+]1(C)CCCCC1
- GI50 (NCI-H23 lung): 1.8 µM
- TGI (NCI-H23 lung): 4.25 µM
- GI50 (NCI-H226 lung): 2.18 µM
- TGI (NCI-H226 lung): 6.25 µM
- GI50 (MDA-MB-435): 1.7 µM
- TGI (MDA-MB-435): 3.2 µM
- GI50 (A498 renal): 2.53 µM
- TGI (A498 renal): 9.71 µM
- GI50 (K-562 leukemia): 2.83 µM
- TGI (K-562 leukemia): 10.1 µM
- GI50 (BT-549 breast): 2.65 µM
- TGI (BT-549 breast): 7.1 µM
- GI50 (ACHN renal): 5.01 µM
- TGI (ACHN renal): 25.8 µM
- GI50 (SN12C renal): 2.07 µM
- TGI (SN12C renal): 4.93 µM

SMILES: COc1cc2c(c(O)c1OC)-c1c(cc(OC)c(OC)c1OC)CC(C)C(C)C2 (stereo not given)
- TGI (NCI-H23 lung): > 100 µM
- TGI (NCI-H226 lung): > 100 µM
- TGI (SF-268 CNS): > 100 µM
- TGI (MDA-MB-435): > 100 µM
- TGI (A498 renal): > 100 µM
- TGI (K-562 leukemia): > 100 µM
- TGI (IGROV1 ovarian): > 100 µM
- TGI (BT-549 breast): > 100 µM
- TGI (ACHN renal): > 100 µM
- TGI (SN12C renal): > 100 µM

SMILES: CN1CCOC(c2ccc(Cl)cc2)O1 (stereo not given)
- TGI (NCI-H23 lung): > 100 µM
- TGI (NCI-H226 lung): > 100 µM
- TGI (SF-268 CNS): > 100 µM
- TGI (MDA-MB-435): > 100 µM
- TGI (A498 renal): > 100 µM
- TGI (K-562 leukemia): > 100 µM
- TGI (IGROV1 ovarian): > 100 µM
- TGI (BT-549 breast): > 100 µM
- TGI (ACHN renal): > 100 µM
- TGI (SN12C renal): > 100 µM
